In US20210308089A1, “METHODS OF TREATING AND/OR PREVENTING VIRAL INFECTIONS AND/OR DISEASES CAUSED BY VIRUSES IN A SUBJECT IN NEED THEREOF” (priority 2020, published 2021):

Test system: statin-treated hypertriglyceridemic patients with cardiovascular disease or at high risk for cardiovascular disease
Assay: REDUCE-IT: time to first occurrence of adjudicated cardiovascular events (primary, secondary, tertiary endpoints), AMR101 4 g/day vs placebo
Type: in vivo, human
Source text: The following study, also referred to as the REDUCE-IT clinical trial, was a large cardiovascular (CV) outcome trial designed to assess CV risk reduction benefit of AMR101 treatment (commercially known as VASCEPA®) versus placebo on the 5-point primary composite endpoint: CV death, nonfatal stroke, nonfatal myocardial infarction (MI), coronary revascularizations, or unstable angina requiring hospitalization.
A multi-center, prospective, randomized, double-blind, placebo-controlled, parallel-group study was performed to evaluate the effect of AMR101 (4 g per day) on cardiovascular health and mortality in hypertriglyceridemic patients with cardiovascular disease or at high risk for cardiovascular disease. The intended expanded indication of the study was treatment with AMR101 as an add-on to statin therapy to reduce the risk of cardiovascular events in patients with clinical cardiovascular disease or with multiple risk factors for cardiovascular disease.
The primary objective of this study was, in patients at LDL-C goal while on statin therapy, with established cardiovascular disease (CVD) or at high risk for CVD, and hypertriglyceridemia (e.g., fasting triglycerides(TG) ≥200 mg/dL and <500 mg/dL), to evaluate the effect of AMR101 4 g daily on time from randomization to first occurrence of any component of the composite of the following major CV events: CV death; nonfatal MI (including silent MI); electrocardiograms (ECGs) were performed annually for the detection of silent MIs); nonfatal stroke; coronary revascularization; and unstable angina determined to be caused by myocardial ischemia by invasive/non-invasive testing and requiring emergent hospitalization.
The key secondary objective of this study was to evaluate the effect of AMR101 4 g daily on the time from randomization to the first occurrence of the composite of following major CV events: CV death, nonfatal MI (including silent MI), and nonfatal stroke.
Other secondary objectives for this study were to evaluate the effect of therapy on time from randomization to the first occurrence of the following individual or composite endpoints: composite of CV death or nonfatal MI (including silent MI); fatal or nonfatal MI (including silent MI); non-elective coronary revascularization represented as the composite of emergent or urgent classifications; CV death; unstable angina determined to be caused by myocardial ischemia by invasive/non-invasive testing and requiring emergent hospitalization; fatal or nonfatal stroke; composite of total mortality, nonfatal MI (including silent MI), or nonfatal stroke; and total mortality.
Primary Efficacy Endpoint: The primary efficacy endpoint was time from randomization to the first occurrence of the composite of the following clinical events: CV death; nonfatal MI (including silent MI; ECGs were performed annually for the detection of silent MIs); nonfatal stroke; coronary revascularization; and unstable angina determined to be caused by myocardial ischemia by invasive/non-invasive testing and requiring emergent hospitalization. The first occurrence of any of these major adverse vascular events during the follow-up period of the study was included in the incidence.
Secondary Efficacy Endpoints: The key secondary efficacy endpoint was the time from randomization to the first occurrence of the composite of CV death, nonfatal MI (including silent MI), or nonfatal stroke. […]

[1] = REDUCE-IT ITT, listed as AMR101
[2] = REDUCE-IT ITT, time to first event
[3] = vs placebo, listed as Icosapent Ethyl

CC/C=C\C/C=C\C/C=C\C/C=C\C/C=C\CCCC(=O)OCC [icosapent ethyl, eicosapentaenoic acid ethyl ester]
Amputation for PVD: % of patients (REDUCE-IT ITT): (0.5%) | Cardiac arrest: % of patients (REDUCE-IT ITT): (0.5%) | Cardiac arrhythmias requiring hospitalization of ≥24 hours: % of patients (REDUCE-IT ITT): (4.6%) | Cardiovascular death: HR vs placebo (REDUCE-IT ITT): 0.80 | Cardiovascular death: patients (REDUCE-IT ITT): 4.3% | Carotid revascularization: % of patients (REDUCE-IT ITT): (0.8%) | Coronary revascularization: % of patients (REDUCE-IT ITT): (9.2%) | Elective revascularization: % of patients (REDUCE-IT ITT): (4.7%) | Emergent revascularization: % of patients (REDUCE-IT ITT): (1.0%) | Hemorrhagic stroke: % of patients (REDUCE-IT ITT): (0.3%) | Ischemic stroke: % of patients (REDUCE-IT ITT): (2.0%) | New heart failure requiring hospitalization: % of patients (REDUCE-IT ITT): (3.4%) | New heart failure: % of patients (REDUCE-IT ITT): (4.1%) | Primary endpoint in patients with diabetes at baseline: % of patients (REDUCE-IT ITT): (18.1%) | Salvage revascularization: % of patients (REDUCE-IT ITT): (0.0%) | Sudden cardiac death: % of patients (REDUCE-IT ITT): (1.5%) | Total mortality (death from any cause): patients (REDUCE-IT ITT): 6.7% | Total mortality: HR vs placebo (REDUCE-IT ITT): 0.87 | Transient ischemic attack: % of patients (REDUCE-IT ITT): (1.6%) | Urgent revascularization: % of patients (REDUCE-IT ITT): (4.4%) | Hemorrhagic stroke: % of patients [1]: 0.3% | New heart failure: % of patients [1]: 4.1% | Key secondary composite endpoint: HR vs placebo [2]: 0.74 | Primary composite endpoint: HR vs placebo [2]: 0.75 | New onset of diabetes: % of patients (patients with diabetes at baseline excluded): (3.8%) | Composite of cardiovascular death or nonfatal myocardial infarction: RRR (vs placebo): 25% | Composite of total mortality, nonfatal myocardial infarction, or nonfatal stroke: reduction (RRR) (vs placebo): 23% | Key secondary composite endpoint: relative risk reduction (vs placebo): 26% | Primary composite endpoint: relative risk reduction (vs placebo): 25% | Total mortality: reduction (RRR) (vs placebo): 13% | Key secondary composite endpoint: relative risk reduction [3]: 26.5% | Primary composite endpoint: relative risk reduction [3]: 24.8%
